{
  "source": "patent US9877960B2",
  "about": "(priority 2012, dated 2018)",
  "key": {"[1]": {"test": "Ames test"}, "[2]": {"target": "AChE (Homo sapiens, UniProt P22303)", "sequence (P22303 32-614)": "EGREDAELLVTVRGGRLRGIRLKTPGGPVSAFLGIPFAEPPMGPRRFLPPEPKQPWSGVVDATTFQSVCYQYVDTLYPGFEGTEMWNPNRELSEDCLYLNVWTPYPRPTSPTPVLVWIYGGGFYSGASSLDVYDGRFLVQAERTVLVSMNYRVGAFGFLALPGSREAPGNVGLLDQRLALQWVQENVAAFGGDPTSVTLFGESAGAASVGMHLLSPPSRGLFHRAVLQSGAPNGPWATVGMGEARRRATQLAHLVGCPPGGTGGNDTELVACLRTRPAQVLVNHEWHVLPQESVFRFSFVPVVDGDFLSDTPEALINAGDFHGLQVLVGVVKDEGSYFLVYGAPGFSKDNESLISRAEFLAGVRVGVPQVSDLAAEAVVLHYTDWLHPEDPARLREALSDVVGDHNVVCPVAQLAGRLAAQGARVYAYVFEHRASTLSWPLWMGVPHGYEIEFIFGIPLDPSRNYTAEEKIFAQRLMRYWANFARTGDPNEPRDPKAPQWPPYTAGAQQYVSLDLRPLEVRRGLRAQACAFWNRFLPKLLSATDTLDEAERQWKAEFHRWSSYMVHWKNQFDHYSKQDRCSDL", "test": "AChE inhibitory action with MATP+ substrate", "type": "biochemical", "details": "absorbance at 412 nm, read-out: concentration (IC50) required for 50% inhibition of AChE", "procedure": "(§1) The active ingredient of the agents of the present invention has AChE inhibitory action. AChE inhibitory action may be measured with MATP+ (1,1-dimethyl-4-acetylthiomethylpiperidine), which is a substrate having high selectivity for AChE (Biol Pharma Bull, 33(4), 702-706, 2010). Specifically, AChE is reacted with MATP+, and measurement is conducted using as an indicator a change in absorbance at 412 nm associated with reaction of detection reagent DNTB (5,5′-dithiobis(2-nitrobenzoic acid)).\nas §1, with “AChE” for “The active ingredient of the agents of the present invention has AChE inhibitory action. AChE”, “action was” for “action may be”, “AChE was” for “AChE is”, “measurement was” for “measurement is”"}, "[3]": {"tested_on": "acetylcholine in the hippocampus", "test": "Concentration of acetylcholine in the hippocampus of rats by microdialysis", "type": "in vivo, rat", "details": "200 mg/kg oral once", "text": "It is considered that the hippocampus region of the brain, in which a cholinergic neuron is known to be involved, has a function related to learning and memory. Since cholinergic neuron is impaired in degenerative disease with symptoms such as reduced learning and memory, an increase in the concentration of acetylcholine in the hippocampus will improve the symptoms such as reduced learning and memory. The concentration of acetylcholine in the rat hippocampus was increased about 2.5-fold, as measured by microdialysis, by the active ingredient of the agents of the present invention.\nA dialysis probe was embedded in the hippocampus of each rat, and measurement was conducted as in Example 1. 2,5-Piperazinedione,3,6-bis(phenylmethyl)-,(3S,6S) was suspended in 0.5% CMC-Na, and 200 mg/kg was orally administered once. The amount of acetylcholine in 15 μl of perfusion liquid collected immediately before the […] oral administration and every 30 minutes after the oral administration was quantitatively determined by HPLC-ECD. The results obtained within the period from 1 hour before the oral administration to 3 hours after the oral administration are shown in FIG. 3, where the time immediately before the oral administration of the test sample is set to 0 minute. […]"}, "[4]": {"tested_on": "rats with scopolamine-induced impairment of learning", "test": "Radial maze test using rats with scopolamine-induced impairment of learning", "type": "in vivo, rat", "details": "200 mg/kg oral, scopolamine 0.5 mg/kg i.p., 8-direction radial maze", "procedure": "Scopolamine is a non-selective competitive antagonist of muscarinic acetylcholine receptors. Laboratory animals with scopolamine-induced impairment of learning are widely used as a memory disorder model.\nUsing SD male rats which were 7 weeks of age, practice training was conducted while the rats were under food deprivation, and thereafter a main test was conducted.\nFood was placed at the end of each arm of an 8-direction radial maze, and an animal was placed on a platform at the center of the maze. Completion of one trial was when the animal finished acquiring food from all arms or when 10 minutes elapsed since the animal was placed on the platform. The training was conducted once a day. “Correct choice” was defined as visiting an unselected arm in the trial, and “wrong choice” was defined as visiting an arm from where food had already been acquired.\n2,5-Piperazinedione,3,6-bis(phenylmethyl)-,(3S,6S) was suspended in 0.5% CMC-Na, and 20 mg/kg and 200 mg/kg were orally administered to the rats which attained the standard in the above practice training trials. Ten minutes after the oral administration, 0.5 mg/kg of scopolamine was intraperitoneally administered. Thirty minutes after the intraperitoneal administration of scopolamine, an 8-direction radial maze test was conducted, and the number of wrong choices and the time taken for the […] to acquire all food were counted. […]"}, "[5]": {"test": "Chromosome aberration test"}, "[6]": {"tested_on": "mice", "test": "Mice micronucleus test", "type": "in vivo"}, "[7]": {"tested_on": "serotonin in the prefrontal region", "test": "Concentration of serotonin in the prefrontal region of rats by microdialysis", "type": "in vivo, rat", "procedure": "The active ingredient of the agents of the present invention has the effect of increasing the concentration of serotonin in the synaptic cleft via inhibitory activity on SERT binding.\nMale SD rats which were 10 to 12 weeks of age were used. The concentration of serotonin in the prefrontal region of each rat was measured in accordance with a published document (Kehr J., and Yoshitake T. (2006) Monitoring brain chemical signals by microdialysis. In: Encyclopedia of Sensors, Vol. 6. (Eds. C. A. Grimes, E. C. Dickey and M. V. Pishko) American Scientific Publishers, USA. 287-312) by microdialysis. Specifically, a dialysis probe was implanted in the prefrontal region of each rat under isoflurane anesthesia. Five days after the implantation surgery, artificial cerebrospinal fluid (148 mM of NaCl, 4 mM of KCl, 0.8 mM of MgCl2, 1.4 mM of CaCl2, 1.2 mM of Na2HPO4, 0.3 mM of NaH2PO4, pH 7.2)) was perfused at the flow rate of 1 μl/min under ambulatory conditions without anesthesia. 2,5-Piperazinedione,3,6-bis(phenylmethyl)-,(3S,6S) was suspended in 0.5% sodium carboxymethylcellulose (CMC-Na), and 2 mg/kg, 20 mg/kg, and 200 mg/kg were orally administered for 14 consecutive days. The amount of […] in 15 μl of perfusion liquid collected immediately before the final oral administration and every 30 minutes after the oral administration was quantitatively determined by HPLC-ECD. The results obtained within the period from 1 hour before the oral administration to 3 hours after the oral administration are shown in FIG. 1, where the time immediately before the oral administration of the test sample is set to 0 minute."}, "[8]": {"tested_on": "mice", "test": "Single-dose acute toxicity test", "type": "in vivo, mouse", "details": "2 g/kg single dose"}, "[9]": {"tested_on": "rats", "type": "in vivo", "details": "28-day repeated dose"}, "[10]": {"tested_on": "loser mice (mice in a depressive state)", "test": "Morris water maze test with mice in a depressive state (loser mice)", "type": "in vivo, mouse", "details": "loser C57BL/6 mice", "procedure": "The active ingredient of the agents of the present invention has antidepressive action. Antidepressive action as SSRI may be measured by a method described in a published document (Exp Anim, 59(2), 191-197, 2010). Specifically, first, a Morris water maze test is conducted for 8 days using mice.\nThe active ingredient of the agents of the present invention has learning motivation improving action. The Morris water maze test has been reported as a method for measuring spatial memory and learning (Learn. Motiv. 12, 239-260 (1981)). In this test, the time required to reach an escape platform (escape latency) is used as a parameter for evaluation, because mice will remember their surrounding scenery and swim in a pool filled with water to try to find and reach the escape platform, which is a goal, with their memory as a guide. Since mice used in a main test are chosen from those which were subjected to the Morris water maze test for 8 days and could not reach the escape platform within […], a reduction in the time required to reach the escape platform can be regarded as an improvement in learning motivation.\nAntidepressive action was measured in accordance with a published document (Exp Anim, 59(2), 191-197, 2010). […]"}, "[11]": {"details": "listed as active ingredient of the agents of the present invention"}},
  "note": "Entries after “also recorded” stand apart in the source; their conditions may differ.",
  "data": [
    {"smiles": "O=C1N[C@@H](Cc2ccccc2)C(=O)N[C@H]1Cc1ccccc1", "note": "[2,5-piperazinedione,3,6-bis(phenylmethyl)-,(3S,6S)]", "values": [
      {"measurement": "mutagenicity in Ames test", "setting": "[1]", "value": "no mutagenicity"},
      {"measurement": "IC50", "setting": "[2]", "value": 3.4, "unit": "µM"},
      {"measurement": "increase of concentration of acetylcholine in the hippocampus", "setting": "[3]", "value": 2.5, "unit": "fold"},
      {"measurement": "increase of concentration of acetylcholine in the hippocampus", "setting": "[3]; [11]", "value": "about 2.5 fold"},
      {"measurement": "percentage of correct choices", "setting": "[4]", "value": "improved significantly"},
      {"measurement": "percentage of correct choices", "setting": "[4]; [11]", "value": "significantly improved"},
      {"measurement": "mutagenicity in chromosome aberration test", "setting": "[5]", "value": "no mutagenicity"},
      {"measurement": "mutagenicity in mice micronucleus test", "setting": "[6]", "value": "no mutagenicity"},
      {"measurement": "concentration of serotonin in the prefrontal region", "setting": "[7]; male SD rats, 20 mg/kg oral, 14 consecutive days", "value": "increased significantly"},
      {"measurement": "concentration of serotonin in the prefrontal region", "setting": "[7]; male SD rats, 200 mg/kg oral, 14 consecutive days", "value": "increased significantly"},
      {"measurement": "concentration of serotonin in the prefrontal region", "setting": "[7]; normal rats, oral for 2 weeks, across doses", "value": "increased dose-dependently and significantly"},
      {"measurement": "toxicity in single-dose acute toxicity test", "setting": "[8]", "value": "no toxicity"},
      {"measurement": "no-observable-effect level", "setting": "[9]", "value": "≥ 10", "unit": "mg/kg/day"},
      {"measurement": "escape latency", "setting": "[10]; oral 0.2 mg/kg or more", "value": "reduced significantly"},
      {"measurement": "escape latency", "setting": "[10]; oral 0.02, 0.2, 2 and 20 mg/kg, dose dependence", "value": "dose-dependent, significant reduction; also recorded: reduced dose-dependently"}
    ]}
  ]
}
